Source: patent publication US8637511B2, “Aminopyrimidines useful as kinase inhibitors” (Vertex Pharmaceuticals Incorporated, priority 2005, dated 2014)
Values joined by “and” are separate entries in the source; they are usually repeats but may differ in a detail not shown here. Equal values may be shown once. Read-outs that look alike come from different tables or passages of the source.

Tests used:
Aurora-2 (Aurora A) = target: T1, Aurora-2 (Aurora A) (Homo sapiens, UniProt O14965); assay: Aurora-2 (Aurora A) inhibition assay, coupled enzyme; type: biochemical; conditions: read-out: Aurora A kinase Ki value
T1 sequence (O14965 1-403): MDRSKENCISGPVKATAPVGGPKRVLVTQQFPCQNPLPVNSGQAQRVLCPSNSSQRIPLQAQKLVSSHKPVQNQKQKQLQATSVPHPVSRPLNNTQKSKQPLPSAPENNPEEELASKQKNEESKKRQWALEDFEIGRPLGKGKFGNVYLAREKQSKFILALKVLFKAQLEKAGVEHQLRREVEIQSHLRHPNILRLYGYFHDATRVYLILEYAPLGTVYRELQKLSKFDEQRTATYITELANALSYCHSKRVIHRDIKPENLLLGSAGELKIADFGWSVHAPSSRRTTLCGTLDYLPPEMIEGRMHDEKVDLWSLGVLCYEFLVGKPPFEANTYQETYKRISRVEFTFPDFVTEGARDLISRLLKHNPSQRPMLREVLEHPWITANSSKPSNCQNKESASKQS
Outline: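 These rates came from NADH consumption coupled through pyruvate kinase and lactate dehydrogenase (100 mM Hepes pH 7.5, 10 mM MgCl2, 300 μM NADH). Aurora-2 was present at 40 nM, and the reaction ran at 30 °C after a 10 min preincubation.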

JAK3 = target: T2, JAK3 (Homo sapiens, UniProt P52333); assay: biochemical
T2 sequence (P52333 1-1124): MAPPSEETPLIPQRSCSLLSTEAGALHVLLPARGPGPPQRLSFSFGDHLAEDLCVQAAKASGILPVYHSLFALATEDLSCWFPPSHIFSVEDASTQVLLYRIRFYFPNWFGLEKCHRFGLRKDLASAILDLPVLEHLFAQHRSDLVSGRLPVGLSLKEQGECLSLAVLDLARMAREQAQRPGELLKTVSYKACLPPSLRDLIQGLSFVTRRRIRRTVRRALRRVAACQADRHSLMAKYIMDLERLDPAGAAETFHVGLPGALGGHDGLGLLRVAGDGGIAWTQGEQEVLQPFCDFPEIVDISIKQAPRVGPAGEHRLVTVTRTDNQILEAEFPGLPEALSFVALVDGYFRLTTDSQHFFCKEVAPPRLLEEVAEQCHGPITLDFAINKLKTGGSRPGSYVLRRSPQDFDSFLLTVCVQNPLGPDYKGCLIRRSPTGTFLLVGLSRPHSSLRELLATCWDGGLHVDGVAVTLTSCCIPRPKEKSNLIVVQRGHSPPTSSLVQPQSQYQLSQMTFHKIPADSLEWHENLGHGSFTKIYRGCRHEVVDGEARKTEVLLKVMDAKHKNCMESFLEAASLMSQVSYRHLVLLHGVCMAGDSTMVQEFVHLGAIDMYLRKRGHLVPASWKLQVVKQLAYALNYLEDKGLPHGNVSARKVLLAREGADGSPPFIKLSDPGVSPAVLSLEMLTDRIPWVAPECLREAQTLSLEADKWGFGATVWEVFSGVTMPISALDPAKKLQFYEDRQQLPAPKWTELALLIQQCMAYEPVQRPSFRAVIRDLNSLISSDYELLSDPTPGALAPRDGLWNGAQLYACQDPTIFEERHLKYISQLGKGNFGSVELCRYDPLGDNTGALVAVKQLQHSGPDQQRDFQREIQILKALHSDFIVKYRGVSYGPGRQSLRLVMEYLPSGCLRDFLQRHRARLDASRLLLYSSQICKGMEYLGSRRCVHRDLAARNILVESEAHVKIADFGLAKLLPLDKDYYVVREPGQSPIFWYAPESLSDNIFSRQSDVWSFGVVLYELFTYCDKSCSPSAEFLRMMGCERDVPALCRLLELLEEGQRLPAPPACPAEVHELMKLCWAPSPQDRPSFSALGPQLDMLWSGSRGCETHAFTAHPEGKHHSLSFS
Description: Reactions were carried out in a kinase buffer containing 100 mM HEPES (pH 7.4), 1 mM DTT, 10 mM MgCl2, 25 mM NaCl, and 0.01% BSA. Substrate concentrations in the assay were 5 μM ATP (200 uCi/μmole ATP) and 1 μM poly(Glu)4Tyr. Reactions were carried out at 25° C. and 1 nM JAK3.
To each well of a 96 well polycarbonate plate was added 1.5 μl of a candidate JAK3 inhibitor along with 50 μl of kinase buffer containing 2 μM poly(Glu)4Tyr and 10 μM ATP. This was then mixed and 50 μl of kinase buffer containing 2 nM JAK3 enzyme was added to start the reaction. After 20 minutes at room temperature (25 C), the reaction was stopped with 50 μl of 20% trichloroacetic acid (TCA) that also contained 0.4 mM ATP. The entire contents of each well were then transferred to a 96 well glass fiber filter plate using a TomTek Cell Harvester. After washing, 60 μl of scintillation fluid was added and ^33P incorporation detected on a Perkin Elmer TopCount.

Colo205 cells = assay: Analysis of cell proliferation and viability; type: cell-based; conditions: Homo sapiens, COLO 205, Colo205 cells, read-out: IC50 value
Aurora-1 (Aurora B) = Aurora-1 (Aurora B) (Homo sapiens, UniProt Q96GD4); assay: Aurora-1 (Aurora B) inhibition assay (radiometric); type: biochemical; conditions: read-out: Aurora B kinase Ki value
Outline: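 Ki values come from non-linear regression of background-corrected initial-rate data. The enzyme was preincubated 10 min at 25° C with compound, then reacted 3 h with 800 μM (final) [γ-^33P]-ATP in HEPES pH 7.5/MgCl2/BSA/glycerol buffer. The reaction was stopped with phosphoric acid and substrate-bound ^33P counted on phosphocellulose.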

Aurora-1 (Aurora B), sequence (Q96GD4 whole entry): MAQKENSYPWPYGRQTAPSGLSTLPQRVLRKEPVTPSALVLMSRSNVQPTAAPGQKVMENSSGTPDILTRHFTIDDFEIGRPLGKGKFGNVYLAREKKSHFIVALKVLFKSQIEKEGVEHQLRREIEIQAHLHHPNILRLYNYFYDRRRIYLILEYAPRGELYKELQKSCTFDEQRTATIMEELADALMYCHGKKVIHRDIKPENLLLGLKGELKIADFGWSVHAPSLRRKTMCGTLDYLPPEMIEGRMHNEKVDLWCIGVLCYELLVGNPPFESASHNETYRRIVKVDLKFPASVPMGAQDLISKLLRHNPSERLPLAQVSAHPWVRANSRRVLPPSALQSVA

| Structure (SMILES) | Ki (Aurora-2 (Aurora A)) | Ki (JAK3) | IC50 (Colo205 cells; incubated for 72 hours) | Ki (Aurora-1 (Aurora B)) | Ki (JAK3; read-out: JAK3 Ki value) | IC50 (Colo205 cells; incubated for 96 hours) |
| --- | --- | --- | --- | --- | --- | --- |
| COc1ccc(C(=O)Nc2ccc(Sc3nc(Nc4cc(C)n[nH]4)cc(N4CCC4)n3)cc2)cc1 [Compound 117] | 1 to 5 nM | 10 to 500 nM | > 200 nM | 10 to 50 nM | – | – |
| Cc1cc(Nc2cc(N3CCC3)nc(Sc3ccc(NC(=O)CCC(F)(F)F)cc3)n2)[nH]n1 [Compound 121] | 1 to 5 nM | 10 to 500 nM | 30 to 200 nM | 10 to 50 nM and < 25 nM | – | – |
| Cc1cc(Nc2cc(N3CCC3)nc(Sc3ccc(NC(=O)c4ccccc4N(C)C)cc3)n2)[nH]n1 [Compound 124] | 5 to 200 nM | 500 to 2000 nM | > 200 nM | 50 to 2000 nM | – | – |
| COC1CN(c2cc(Nc3cc(C)n[nH]3)nc(Sc3ccc(NC(=O)c4ccccc4C(F)(F)F)cc3)n2)C1 [Compound 126] | ≤ 1 nM | – | 30 to 200 nM | ≤ 10 nM | 10 to 500 nM | – |
| Cc1cc(Nc2cc(N3CCC3)nc(Sc3ccc(NC(=O)C(C)CC(F)(F)F)cc3)n2)[nH]n1 (stereo not shown) [Compound 127] | 1 to 5 nM | 500 to 2000 nM | 30 to 200 nM | 10 to 50 nM and < 25 nM | – | – |
| Cc1cc(Nc2cc(N3CC(O)(C4CC4)C3)nc(Sc3ccc4ccccc4c3)n2)n[nH]1 [Compound 131] | ≤ 1 nM | ≤ 10 nM | > 200 nM | 50 to 2000 nM | – | – |
| Cc1cc(Nc2cc(N3CCC3)nc(Oc3ccc(NC(=O)c4ccccc4C(F)(F)F)cc3)n2)[nH]n1 [Compound 134] | 1 to 5 nM | 10 to 500 nM | 30 to 200 nM | 10 to 50 nM and < 25 nM | – | – |
| Cc1cc(Nc2cc(N3CCC3)nc(Sc3ccc(NC(=O)c4ccc(CN(C)C)cc4)cc3)n2)[nH]n1 [Compound 137] | 5 to 200 nM | – | – | 50 to 2000 nM | 500 to 2000 nM | 50 to 1000 nM |
| Cc1ccc(C(=O)Nc2ccc(Sc3nc(Nc4cc(C)n[nH]4)cc(N4CCC4)n3)cc2)cn1 [Compound 145] | 5 to 200 nM | 10 to 500 nM | > 200 nM | 50 to 2000 nM | – | – |
| Cc1cc(Nc2cc(N3CCC3)nc(Sc3ccc(NC(=O)c4ccncc4C(F)(F)F)cc3)n2)[nH]n1 [Compound 146] | ≤ 1 nM | 10 to 500 nM | ≤ 30 nM | ≤ 10 nM | – | – |
| O=C(CC(F)(F)F)Nc1ccc(Sc2nc(Nc3cc[nH]n3)cc(N3CC(F)(C4CC4)C3)n2)cc1 [Compound 148] | 1 to 5 nM | 10 to 500 nM | > 200 nM | 50 to 2000 nM | – | – |
| Cc1cc(Nc2cc(N3CCC3)nc(Sc3ccc(NC(=O)c4cc(C)nc(Cl)c4)cc3)n2)[nH]n1 [Compound 149] | 1 to 5 nM | 10 to 500 nM | > 200 nM | 10 to 50 nM | – | – |
| Cc1cc(Nc2cc(N3CCC3)nc(Sc3ccc(NS(C)(=O)=O)cc3)n2)[nH]n1 [Compound 150] | 5 to 200 nM | ≤ 10 nM | > 200 nM | 50 to 2000 nM | – | – |
